Data from PMC11057469, “Quantitative cross-species comparison of serum albumin binding of per- and polyfluoroalkyl substances from five structural classes” (Toxicological Sciences, 2024).
Read-outs that look alike come from different tables or passages of the source.

Assays:
[1] = target: Bovine serum albumin (BSA) (Bos taurus, UniProt P02769); experiment: in vitro; settings: for difference in binding affinity, BSA affinity lower than HSA: BSA compared with HSA; for ΔTm: bovine, pH 7.4
Protocol: (§1) A minimum of 2 independent plates were run for each protein-ligand combination, with 3 replicates per sample on each plate. Controls on each plate included a no protein control, matching vehicle control (no ligand), and 3 concentrations of OA (1, 2, 3 mM) and/or PFHxA (0.3, 1, 3 mM) as positive controls. The concentration of albumin that yielded maximal signal-to-noise ratio was optimized for each species. […] For concentration-response analyses, PFAS stock solutions were serially diluted into HBS.

[2] = target: porcine serum albumin (PSA) (Sus scrofa, UniProt P08835); experiment: in vitro; settings: for ΔTm: pig, pH 7.4
Protocol: (§2) Serum albumin stocks (1 mM) were prepared by reconstituting lyophilized stocks in HBS, with expected protein concentrations confirmed using the colorimetric Bio-Rad DC Protein Assay (Hercules, California).
as §1

[3] = target: human serum albumin (HSA) (Homo sapiens, UniProt P02768); experiment: in vitro
Protocol: as §2, §1

Rat serum albumin (RSA) = Rat serum albumin (RSA) (Rattus norvegicus, UniProt P02770); experiment: in vitro; settings: for ΔTm: rat, pH 7.4; for difference in binding affinity, RSA affinity greater than HSA: RSA compared with HSA, from DSF Kd
Protocol: as §2, §1

[4] = pig, after oral exposure; ref Fasano et al., 2006; Xie et al., 2020; cited from earlier work
[5] = rat, after oral exposure; ref Fasano et al., 2006; Xie et al., 2020; cited from earlier work
[6] = elimination half-life in serum/plasma, Rat, cited from earlier work
[7] = elimination half-life in serum/plasma, Human, cited from earlier work
[8] = set-up: method as in Numata et al., 2014; settings: elimination half-life in serum/plasma, Pig; ref Numata et al., 2014; cited from earlier work
[9] = set-up: method as in Death et al., 2021; settings: elimination half-life in serum/plasma, Cow; ref Death et al., 2021; cited from earlier work
[10] = BSA, 1 = highest relative affinity, 4 = lowest
[11] = PSA, 1 = highest relative affinity, 4 = lowest
[12] = HSA, 1 = highest relative affinity, 4 = lowest
[13] = RSA, 1 = highest relative affinity, 4 = lowest
[14] = PSA compared with HSA, from DSF Kd

porcine serum albumin (PSA), sequence (P08835 25-607): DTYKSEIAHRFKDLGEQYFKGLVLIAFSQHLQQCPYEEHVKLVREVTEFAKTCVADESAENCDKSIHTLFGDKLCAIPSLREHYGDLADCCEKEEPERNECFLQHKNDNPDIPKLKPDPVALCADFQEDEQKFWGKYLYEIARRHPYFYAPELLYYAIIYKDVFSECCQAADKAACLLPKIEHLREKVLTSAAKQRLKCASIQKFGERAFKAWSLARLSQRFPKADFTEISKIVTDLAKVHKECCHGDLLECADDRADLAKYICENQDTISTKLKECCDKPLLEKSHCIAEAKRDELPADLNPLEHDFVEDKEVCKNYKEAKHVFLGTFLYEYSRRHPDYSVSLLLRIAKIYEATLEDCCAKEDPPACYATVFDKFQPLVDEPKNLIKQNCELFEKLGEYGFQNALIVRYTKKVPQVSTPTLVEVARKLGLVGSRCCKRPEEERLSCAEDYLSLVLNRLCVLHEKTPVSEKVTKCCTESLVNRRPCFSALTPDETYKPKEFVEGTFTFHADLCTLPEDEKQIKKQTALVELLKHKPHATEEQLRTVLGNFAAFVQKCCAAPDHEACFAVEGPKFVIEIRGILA
Bovine serum albumin (BSA), sequence (P02769 25-607): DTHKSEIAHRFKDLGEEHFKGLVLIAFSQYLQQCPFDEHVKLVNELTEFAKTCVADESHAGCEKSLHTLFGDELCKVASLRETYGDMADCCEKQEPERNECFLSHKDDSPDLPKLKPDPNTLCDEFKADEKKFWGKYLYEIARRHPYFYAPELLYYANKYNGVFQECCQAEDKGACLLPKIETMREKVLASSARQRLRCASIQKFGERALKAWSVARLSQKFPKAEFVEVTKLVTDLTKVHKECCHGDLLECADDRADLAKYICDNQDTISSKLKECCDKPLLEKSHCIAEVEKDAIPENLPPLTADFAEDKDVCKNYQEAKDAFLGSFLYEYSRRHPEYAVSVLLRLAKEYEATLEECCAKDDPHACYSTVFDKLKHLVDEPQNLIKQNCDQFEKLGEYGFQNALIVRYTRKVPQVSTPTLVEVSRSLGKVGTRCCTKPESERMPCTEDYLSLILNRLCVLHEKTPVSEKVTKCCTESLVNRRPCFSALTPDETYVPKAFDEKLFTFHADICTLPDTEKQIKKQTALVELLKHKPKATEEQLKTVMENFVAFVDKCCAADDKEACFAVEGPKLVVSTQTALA
Rat serum albumin (RSA), sequence (P02770 25-608): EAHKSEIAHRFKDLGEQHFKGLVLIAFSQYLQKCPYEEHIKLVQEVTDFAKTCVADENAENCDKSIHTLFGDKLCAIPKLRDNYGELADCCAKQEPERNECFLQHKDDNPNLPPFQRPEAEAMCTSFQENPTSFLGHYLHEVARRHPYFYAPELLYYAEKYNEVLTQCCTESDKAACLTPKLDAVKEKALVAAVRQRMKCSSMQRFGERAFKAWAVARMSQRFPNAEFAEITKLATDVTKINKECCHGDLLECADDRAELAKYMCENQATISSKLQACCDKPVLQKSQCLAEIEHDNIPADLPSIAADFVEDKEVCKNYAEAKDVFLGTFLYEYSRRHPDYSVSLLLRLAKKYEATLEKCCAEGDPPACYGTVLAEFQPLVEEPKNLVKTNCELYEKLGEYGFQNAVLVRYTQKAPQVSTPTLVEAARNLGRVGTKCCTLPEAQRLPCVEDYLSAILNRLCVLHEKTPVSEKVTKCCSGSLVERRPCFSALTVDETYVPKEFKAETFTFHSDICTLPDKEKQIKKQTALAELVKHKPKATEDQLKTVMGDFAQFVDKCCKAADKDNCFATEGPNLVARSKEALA
human serum albumin (HSA), sequence (P02768 25-609): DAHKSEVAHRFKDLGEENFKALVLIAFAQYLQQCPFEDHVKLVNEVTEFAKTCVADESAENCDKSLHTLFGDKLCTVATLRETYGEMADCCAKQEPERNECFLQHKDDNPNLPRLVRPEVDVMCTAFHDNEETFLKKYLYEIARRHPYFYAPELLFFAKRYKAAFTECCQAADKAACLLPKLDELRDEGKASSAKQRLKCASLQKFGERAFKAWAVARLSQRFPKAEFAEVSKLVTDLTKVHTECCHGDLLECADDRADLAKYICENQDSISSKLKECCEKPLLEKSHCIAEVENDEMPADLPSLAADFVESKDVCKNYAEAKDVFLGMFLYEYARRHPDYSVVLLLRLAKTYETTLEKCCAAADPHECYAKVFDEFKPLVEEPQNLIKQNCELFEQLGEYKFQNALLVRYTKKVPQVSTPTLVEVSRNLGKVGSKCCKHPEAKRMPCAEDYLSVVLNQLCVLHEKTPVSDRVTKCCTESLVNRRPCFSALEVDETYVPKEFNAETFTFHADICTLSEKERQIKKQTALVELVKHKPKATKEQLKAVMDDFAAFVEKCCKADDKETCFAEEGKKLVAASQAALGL

SMILES | Kd [1] [µM] | difference in binding affinity, BSA affinity lower than HSA ([1]; from DSF Kd) [%] | rank order of binding affinity among the four albumins [1, 10] | rank order of binding affinity among the four albumins [2, 11] | rank order of binding affinity among the four albumins [3, 12] | rank order of binding affinity among the four albumins (Rat serum albumin (RSA); [13]) | Kd [2] [µM] | Kd [3] [µM] | Kd (Rat serum albumin (RSA)) [µM] | Half-life ([6]; ref Pizzurro et al., 2019) | difference in binding affinity, PSA affinity greater than HSA [2, 14] [%] | Half-life ([7]; ref Pizzurro et al., 2019) | Half-life [8] | other results
OCCC(F)(F)C(F)(F)C(F)(F)C(F)(F)C(F)(F)C(F)(F)F [6:2 FTOH, 1H, 1H, 2H, 2H-perfluorooctanol] |  |  |  |  |  |  |  |  |  |  |  |  |  | ΔTm, maximum change in melting temperature ([1]; BSA 0.18 mM, DSF, value (±SEM), N/A = nonbinding): no changes in albumin TM were detected; ΔTm, maximum change in melting temperature ([2]; PSA 0.11 mM, DSF, value (±SEM), N/A = nonbinding): no changes in albumin TM were detected; ΔTm, maximum change in melting temperature ([3]; HSA 0.13 mM, DSF, value (±SEM), N/A = nonbinding): no changes in albumin TM were detected; ΔTm, maximum change in melting temperature (Rat serum albumin (RSA); RSA 0.18 mM, DSF, value (±SEM), N/A = nonbinding): no changes in albumin TM were detected
O=S(=O)(O)CCC(F)(F)C(F)(F)C(F)(F)C(F)(F)C(F)(F)C(F)(F)F [6:2 FTSA, 2H, 2H, 3H, 3H-perfluorooctane-1-sulfonate] | 1390 | 108.9 | 4 | 3 | 2 | 1 |  |  |  |  |  |  |  | ΔTm [1]: 17.2 °C; ΔTm [2]: 8.72 °C; ΔTm ([3]; human, pH 7.4): 3.53 °C; ΔTm (Rat serum albumin (RSA)): 7.99 °C
OCCC(F)(F)C(F)(F)C(F)(F)C(F)(F)C(F)(F)C(F)(F)C(F)(F)C(F)(F)F [8:2 FTOH] |  |  |  |  |  |  |  |  |  |  |  |  |  | accumulation in tissues [4]: did not accumulate; accumulation in tissues [5]: did not accumulate
O=C(O)C(F)(OC(F)(F)C(F)(F)C(F)(F)F)C(F)(F)F (centres unmarked) [HFPO-DA, hexafluoropropylene oxide-dimer acid] | 2550 | 47.6 | 4 | 3 | 1 | 2 | 2120 | 1570 | 1640 |  |  |  |  | difference in binding affinity, HSA affinity greater than PSA ([2]; HSA compared with PSA, from DSF Kd): 29.8%
O=C(O)C(F)(F)C(F)(F)C(F)(F)F [PFBA, Perfluorobutanoic acid] | 3060 |  | 4 | 1 | 3 | 2 | 1280 | 2640 | 1900 | 1–9.2 h^a | 69.4 | 3.1 days^a |  | 
O=S(=O)(O)C(F)(F)C(F)(F)C(F)(F)C(F)(F)F [PFBS, perfluorobutanesulfonic acid] |  |  | 1 | 2 | 4 | 3 | 1250 | 1680 | 1410 | 0.6–7.4 h^a | 29.4 | 25.8 days^a | 43 days^d | difference in binding affinity, HSA affinity lower than BSA ([1]; HSA compared with BSA, from DSF Kd): 71.0%; difference in binding affinity, RSA affinity greater than HSA (Rat serum albumin (RSA)): 17.5%
O=C(O)C(F)(F)C(F)(F)C(F)(F)C(F)(F)C(F)(F)F [PFHxA, Perfluorohexanoic acid] | 2170 | 23.7 | 4 | 1 | 3 | 2 | 950 | 1710 | 1330 |  | 57.1 |  | 4.1 days^d | Half-life ([6]; ref Russell et al., 2013): 0.4–9.8 h^e; Half-life ([7]; ref Lau, 2015): 32 days^b
O=C(O)C(F)(F)C(F)(F)C(F)(F)C(F)(F)C(F)(F)C(F)(F)C(F)(F)F [PFOA, perfluorooctanoic acid] | 990 | 22.5 | 4 | 1 | 3 | 2 | 370 | 790 | 400 | 0.1–15 days^a | 72.4 | 2.3–8.5 years^a | 236 days^d | binding affinity of 8-carbon congener greater than 4-carbon congener ([1]; BSA, PFOA vs PFBA): 102.2%; Half-life [9]: 0.8–1.3 days^c; binding affinity of 8-carbon congener greater than 4-carbon congener ([2]; PSA, PFOA vs PFBA, PFOS vs PFBS): 110.3%; binding affinity of 8-carbon congener greater than 4-carbon congener ([3]; HSA, PFOA vs PFBA, PFOS vs PFBS): 107.9%; difference in binding affinity, RSA affinity greater than HSA (Rat serum albumin (RSA)): 65.5%; binding affinity of 8-carbon congener greater than 4-carbon congener (Rat serum albumin (RSA); RSA, PFOA vs PFBA, PFOS vs PFBS): 130.4%
O=S(=O)(O)C(F)(F)C(F)(F)C(F)(F)C(F)(F)C(F)(F)C(F)(F)C(F)(F)C(F)(F)F [PFOS, perfluorooctanesulfonic acid] |  |  |  |  |  |  |  | 690 |  | 24–83 days^a |  | 3.3–5.4 years^a | 1.7 years^d | hill slope of the biphasic melt curve [1]: 3.5 ± 0.3; rank order of binding affinity among the four albumins [1]: 4; ΔTm [1]: 15.3 °C; Half-life [9]: 39–120 days^c; binding affinity of 8-carbon congener greater than 4-carbon congener [2]: 106.7%; difference in binding affinity, PSA affinity greater than HSA [2]: 57.9%; rank order of binding affinity among the four albumins [2]: 1; ΔTm [2]: 5.74 °C; binding affinity of 8-carbon congener greater than 4-carbon congener [3]: 83.5%; rank order of binding affinity among the four albumins [3]: 3; Kd ([3]; human, pH 7.4): 620 µM; ΔTm ([3]; human, pH 7.4): 15.9 °C; binding affinity of 8-carbon congener greater than 4-carbon congener (Rat serum albumin (RSA)): 108.2%; rank order of binding affinity among the four albumins (Rat serum albumin (RSA)): 2; ΔTm (Rat serum albumin (RSA)): 4.76 °C
